According to patent US20100056623A1, “FUMAGILLOL DERIVATIVES OR METHOD FOR PREPARATION OF FUMAGILLOL DERIVATIVES, AND PHARMACEUTICAL COMPOSITIONS COMPRISING THE SAME” (CHONG KUN DANG PHARMACEUTICAL CORP., priority 2005, published 2010):

How the values were obtained:
[1] = Chemical stability test (HPLC purity); conditions: for change of purity (in words) / 1 month Other peaks (%) / 1 month Parent peak (%): 1 month at 40±2° C.; for change of purity (in words) / 1 month Other peaks (%) / 1 month Parent peak (%) / change of purity (%): 75±5% relative humidity; for 1 month Other peaks (%) / 1 month Parent peak (%) / Initial Other peaks (%) / Initial Parent peak (%): HPLC; for 1 month Other peaks (%) / 1 month Parent peak (%): air-tight vessel; for change of purity (%): initial vs 1 month at 40±2° C.
Description: (§3) Each compound of the present invention was kept in an air-tight vessel for 1 month at 40±2° C. and 75±5% of relative humidity. Thereafter the HPLC purity test was executed.
(§4) 25 mL of the solution was precisely taken, and poured into 100 mL volumetric flask. Acetonitrile/20 mM ammonium acetate aqueous solution (50:50) was added thereto to be the total volume of 100 ml. The solution was filtrated, and the filtrate was used as a test liquid.
(§5) (2) Operational Condition of Instrument. • Column: Kromasil®C18 (UG 100 Å, 5 μm, 4.6 mm Φ×250 mm) • Column temperature: 30° C. • Mobil phase: 20 mM ammonium acetate (pH 4.2) buffer:acetonitrile (55:45) • Injection volume: 20 μL • Flow rate: 1.2 mL/min • Detector: UV light-absorption Spectrophotometer (detection wavelength: 306 nm)

[2] = test system: CPAE (calf pulmonary artery endothelial cell); assay: Inhibiting activity on cell proliferation, SRB analysis (CPAE); assay type: cell-based; conditions: for IC50: Bos taurus, Endothelial cell, 72 h, CPAE cells, 3 days with drug, SRB, read-out: IC50 (nM) CAPE; for effect compared to CKD-731 against CPAE: relative to CKD-731; for effect compared to CKD-731 against SI: safety/selectivity index relative to CKD-731
Description: (§1) In order to compare the safety index (SI) of CPAE (calf pulmonary artery endothelial cell) with that of HUVEC (human umbilical vein endothelial cell), L5178Y lymphoma that was isolated from murine thymus was used. The safety index was defined as IC50 ratio of L5178Y against CPAE (IC50L5178Y/IC50CPAE). All cell lines, which had been kept in liquid nitrogen tank, were used after being thawed and subcultured 2˜3 times in T-flask. CPAE, HUVEC and L5178Y were cultured in MEM culture medium (20% FBS, 50˜100 μg/ml ECGS, 0.15% baking soda, 0.05 mg/ml gentamicin), M199 culture medium (20% FBS, 0.22% baking soda, 100 μg/ml heparin, 3 ng/ml bFGF, 0.05 mg/ml gentamicin) and RPMI 1640 culture medium (10% FBS, 0.2% baking soda, 0.05 mg/ml gentamicin), respectively, under the condition of 37° C. and 5% CO2.
(§2) The drug was prepared by being gradationally diluted to two or ten times by using PBS, 20 μl of the solution was added to each well of 96 well plate in triplicate. The cell, which is being incubated, was treated with trypsin to give cell suspension. The number of cell thereafter was counted. And 180 μl of the solution was inoculated to each well and cultured.
The cell was cultured with drugs for 3 days and then 50 μl of 50% TCA was added thereto (final concentration 10%). Subsequently the cell was fixed by being left alone at 4° C. for 1 hour. The well was washed 4 times by distilled water and then dried. After that 100 μl of SRB (Sulforhodamine B, Sigma Chemical Co.) solution (0.4% w/v in 1% acetic acid) was added thereto and then it was left alone at ordinary temperature for 30 minutes. Thereafter the well was washed 4 times by 1% acetic acid and dried. And then after adding 200 μl of 10 mM tris buffer, the absorbance at 570 nm was measured by automatic microplate reader (Model: Elx 808, Bio-Tek Instrument, INC). The viability was calculated from the ratio of the absorbance of the control to which drugs were not added and the well to which drugs were added.

[3] = 1 month
Description: as §3, §4, §5

Solubility test = assay type: physicochemical; conditions: ordinary temperature
Description: To a constant amount (400 mg) of each compounds of present invention, a constant amount of demineralized water, methanol and ethanol were added separately, and the solution was stirred at ordinary temperature.

L5178Y lymphoma = assay: Inhibiting activity on cell proliferation, MTT analysis (L5178Y); assay type: cell-based, murine; conditions: Mus musculus, 72 h, L5178Y lymphoma cells, 3 days with drug
Description: as §1, §2
The tumor cell was cultured with drugs for 3 days and then 50 μl of MTT (3-(4,5-dimethylthiazole-2-yl)-2,5-diphenyl tetrazolium bromide, Sigma Chemical Co.) solution (2.5 mg/ml in PBS) was added thereto. And it was further cultured for 4 hours at 37° C. Culture medium was removed carefully. And after dissolving formazan crystal by adding 150 μl of DMSO, the absorbance at 570 nm was determined.

SD rats = assay: Acute oral toxicity test on rats; assay type: in vivo; conditions: single oral dose 1 g/kg/15 ml in 0.5% methylcellulose
Description: The acute toxicity test was carried out using 6-weeks-old SD rats. Each Example of O-(4-(2-hydroxyethoxy)cinnamoyl)fumagillol (a compound of the Example 1), O-(3,5-dimethoxy-4-(2-hydroxyethoxy)cinnamoyl)fumagillol (a compound of the Example 2) and O-(4-(2-hydroxyethoxy)-3-methoxycinnamoyl)fumagillol (a compound of the Example 3) was suspended in 0.5% methylcellulose, and then orally administrated once to 5 of each male and each female rats per group by dosage of 1 g/kg/15 ml. After administrating the test substances, the death of the rats, clinic symptoms and the change of weight were observed. And also hematologic and blood biochemical tests were executed, the abnormality of abdominal and thoracic organs was observed by autopsy with the naked eye.

## COc1cc(/C=C/C(=O)O[C@@H]2CC[C@]3(CO3)[C@@H]([C@@]3(C)O[C@@H]3CC=C(C)C)[C@@H]2OC)cc(OC)c1OCCO [Example 2, O-(3,5-dimethoxy-4-(2-hydroxyethoxy)cinnamoyl)fumagillol]
[1]
  change of purity (in words): hardly showed a change of purity
  1 month Other peaks (%): 0.9%
  1 month Parent peak (%): 99.1%
  Initial Other peaks (%): 0.9%
  Initial Parent peak (%): 99.1%
  change of purity (%): 0%
[2]
  IC50: 0.0025 nM
  effect compared to CKD-731 against CPAE: equivalent or not smaller than twice effect of CKD-731
  effect compared to CKD-731 against SI: equivalent or more effect of CKD-731
[2]; IC50 L5178Y / IC50 CPAE
  Selectivity Index (L5178Y/CAPE): 1.00 × 10^7
[3]
  chemical stability compared to known compounds: more excellent chemical stability than TNP-470, CKD-732 and CKD-731
Solubility test
  The amount of solvent to dissolve 1 g of the compounds (ml), demineralized water: 146 mL
  The amount of solvent to dissolve 1 g of the compounds (ml), ethanol: 59 mL
  The amount of solvent to dissolve 1 g of the compounds (ml), methanol: 37 mL
L5178Y lymphoma
  IC50: 25000 nM
SD rats
  clinic symptoms, death and change by toxicity (autopsy): no notable clinic symptoms, death and change by toxicity

## COc1cc(/C=C/C(=O)O[C@@H]2CC[C@]3(CO3)[C@@H]([C@@]3(C)O[C@@H]3CC=C(C)C)[C@@H]2OC)ccc1OCCO [Example 3, O-(4-(2-hydroxyethoxy)-3-methoxycinnamoyl)fumagillol]
[1]
  change of purity (in words): hardly showed a change of purity
  1 month Other peaks (%): 1.6%
  1 month Parent peak (%): 98.4%
  Initial Other peaks (%): 1.5%
  Initial Parent peak (%): 98.5%
  change of purity (%): 0.1%
[2]
  IC50: 0.0045 nM
  effect compared to CKD-731 against CPAE: equivalent or not smaller than twice effect of CKD-731
  effect compared to CKD-731 against SI: equivalent or more effect of CKD-731
[3]
  chemical stability compared to known compounds: more excellent chemical stability than TNP-470, CKD-732 and CKD-731
Solubility test
  The amount of solvent to dissolve 1 g of the compounds (ml), demineralized water: 142 mL
  The amount of solvent to dissolve 1 g of the compounds (ml), ethanol: 61 mL
  The amount of solvent to dissolve 1 g of the compounds (ml), methanol: 45 mL
L5178Y lymphoma
  IC50: 56400 nM
SD rats
  clinic symptoms, death and change by toxicity (autopsy): no notable clinic symptoms, death and change by toxicity
